Values quoted from earlier work, collected in paper PMC9851200, “Multiparameter phenotypic screening for endogenous TFEB and TFE3 translocation identifies novel chemical series modulating lysosome function” (Autophagy, 2022).

What was measured:
Set-up in all cases: method as in original PKIS2 published data
[1] = biological target: kinases (KINOMEscan panel) (Homo sapiens, UniProt Q9Y2H9); settings: MAST1; Published KINOMEscan; ref original PKIS2 published data; cited from earlier work
[2] = biological target: kinases (KINOMEscan panel) (Homo sapiens, UniProt Q9H1R3); settings: MYLK2; Published KINOMEscan; ref original PKIS2 published data; cited from earlier work
kinases (KINOMEscan panel) (Homo sapiens, UniProt Q9H1R3), sequence (Q9H1R3 whole entry): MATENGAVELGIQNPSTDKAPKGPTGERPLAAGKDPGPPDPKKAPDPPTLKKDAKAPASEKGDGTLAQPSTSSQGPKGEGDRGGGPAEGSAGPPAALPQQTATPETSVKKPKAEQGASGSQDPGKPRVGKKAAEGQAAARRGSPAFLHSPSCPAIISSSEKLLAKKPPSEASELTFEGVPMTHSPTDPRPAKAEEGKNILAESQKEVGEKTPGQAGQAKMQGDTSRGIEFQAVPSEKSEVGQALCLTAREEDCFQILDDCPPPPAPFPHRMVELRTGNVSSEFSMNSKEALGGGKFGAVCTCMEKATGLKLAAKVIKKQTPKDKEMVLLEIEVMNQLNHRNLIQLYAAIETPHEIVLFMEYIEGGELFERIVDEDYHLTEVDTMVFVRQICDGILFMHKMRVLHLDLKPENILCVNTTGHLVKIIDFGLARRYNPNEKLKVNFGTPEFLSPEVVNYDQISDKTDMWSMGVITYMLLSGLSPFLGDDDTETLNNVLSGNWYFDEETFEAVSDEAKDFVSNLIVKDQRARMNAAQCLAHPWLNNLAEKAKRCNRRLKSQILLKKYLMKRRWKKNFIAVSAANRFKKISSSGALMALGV

[3] = biological target: T1, kinases (KINOMEscan panel) (Homo sapiens, UniProt Q7L7X3); settings: kinase TAOK1; Published KINOMEscan; ref original PKIS2 published data; cited from earlier work
T1 sequence (Q7L7X3 1-1001): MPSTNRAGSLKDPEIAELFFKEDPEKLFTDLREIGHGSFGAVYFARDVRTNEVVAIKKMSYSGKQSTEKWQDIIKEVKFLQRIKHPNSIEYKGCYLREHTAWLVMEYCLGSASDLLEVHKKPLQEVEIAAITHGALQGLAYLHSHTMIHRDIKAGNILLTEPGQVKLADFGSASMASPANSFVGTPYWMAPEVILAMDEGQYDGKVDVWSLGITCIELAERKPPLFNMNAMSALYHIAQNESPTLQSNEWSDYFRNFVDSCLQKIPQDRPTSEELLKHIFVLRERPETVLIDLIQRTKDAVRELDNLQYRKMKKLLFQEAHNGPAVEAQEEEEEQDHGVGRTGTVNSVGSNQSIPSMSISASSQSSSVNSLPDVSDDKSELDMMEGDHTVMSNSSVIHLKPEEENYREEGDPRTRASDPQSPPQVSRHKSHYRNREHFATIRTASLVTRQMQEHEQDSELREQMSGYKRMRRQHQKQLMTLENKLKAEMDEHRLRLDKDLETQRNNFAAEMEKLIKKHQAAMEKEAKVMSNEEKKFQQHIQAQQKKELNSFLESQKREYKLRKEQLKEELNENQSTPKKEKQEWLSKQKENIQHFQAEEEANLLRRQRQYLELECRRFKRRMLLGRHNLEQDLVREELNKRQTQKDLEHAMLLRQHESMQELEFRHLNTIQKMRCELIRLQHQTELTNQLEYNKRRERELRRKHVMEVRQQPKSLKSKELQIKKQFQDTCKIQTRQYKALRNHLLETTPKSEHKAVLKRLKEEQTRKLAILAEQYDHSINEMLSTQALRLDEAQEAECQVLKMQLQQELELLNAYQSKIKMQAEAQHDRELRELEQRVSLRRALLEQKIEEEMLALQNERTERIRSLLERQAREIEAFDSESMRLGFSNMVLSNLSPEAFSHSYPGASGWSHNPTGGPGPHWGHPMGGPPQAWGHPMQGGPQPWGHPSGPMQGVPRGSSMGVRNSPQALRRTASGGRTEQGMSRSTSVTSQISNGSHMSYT

[4] = biological target: T2, kinases (KINOMEscan panel) (Homo sapiens, UniProt O14965); settings: Published KINOMEscan; ref original PKIS2 published data; cited from earlier work
T2 sequence (O14965 1-403): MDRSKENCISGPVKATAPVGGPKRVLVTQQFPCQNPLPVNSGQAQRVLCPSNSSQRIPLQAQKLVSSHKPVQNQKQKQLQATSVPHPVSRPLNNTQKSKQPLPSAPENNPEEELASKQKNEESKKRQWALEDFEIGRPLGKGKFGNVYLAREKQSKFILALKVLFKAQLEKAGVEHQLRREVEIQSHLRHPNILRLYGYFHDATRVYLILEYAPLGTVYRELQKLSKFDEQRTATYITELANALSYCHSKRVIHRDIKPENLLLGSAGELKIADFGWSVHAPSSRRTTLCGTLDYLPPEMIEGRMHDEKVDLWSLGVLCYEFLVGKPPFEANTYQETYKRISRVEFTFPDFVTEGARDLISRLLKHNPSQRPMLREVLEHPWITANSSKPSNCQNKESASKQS

[5] = biological target: T3, kinases (KINOMEscan panel) (Homo sapiens, UniProt Q9UHD2); settings: TBK1; Published KINOMEscan; ref original PKIS2 published data; cited from earlier work
T3 sequence (Q9UHD2 1-729): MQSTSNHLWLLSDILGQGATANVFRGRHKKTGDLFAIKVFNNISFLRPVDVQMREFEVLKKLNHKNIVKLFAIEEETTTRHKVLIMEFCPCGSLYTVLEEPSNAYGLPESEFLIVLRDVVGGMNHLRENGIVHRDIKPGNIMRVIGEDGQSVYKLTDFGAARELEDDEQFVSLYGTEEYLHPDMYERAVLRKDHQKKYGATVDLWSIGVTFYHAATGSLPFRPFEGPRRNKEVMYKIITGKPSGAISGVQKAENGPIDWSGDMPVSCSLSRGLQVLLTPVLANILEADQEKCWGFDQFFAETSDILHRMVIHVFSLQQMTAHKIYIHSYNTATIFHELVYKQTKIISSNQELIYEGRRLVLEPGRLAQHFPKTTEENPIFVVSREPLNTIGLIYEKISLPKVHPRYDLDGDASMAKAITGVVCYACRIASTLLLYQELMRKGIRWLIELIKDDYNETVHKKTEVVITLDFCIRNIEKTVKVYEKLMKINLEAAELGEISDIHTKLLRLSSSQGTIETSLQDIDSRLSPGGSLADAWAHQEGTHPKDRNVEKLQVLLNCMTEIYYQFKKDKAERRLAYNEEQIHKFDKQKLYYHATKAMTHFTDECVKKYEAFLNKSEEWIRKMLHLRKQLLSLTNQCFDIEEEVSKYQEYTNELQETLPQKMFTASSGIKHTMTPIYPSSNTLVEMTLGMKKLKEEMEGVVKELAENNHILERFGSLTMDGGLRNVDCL

kinases (KINOMEscan panel) (Homo sapiens, UniProt Q9Y2H9), sequence (Q9Y2H9 whole entry): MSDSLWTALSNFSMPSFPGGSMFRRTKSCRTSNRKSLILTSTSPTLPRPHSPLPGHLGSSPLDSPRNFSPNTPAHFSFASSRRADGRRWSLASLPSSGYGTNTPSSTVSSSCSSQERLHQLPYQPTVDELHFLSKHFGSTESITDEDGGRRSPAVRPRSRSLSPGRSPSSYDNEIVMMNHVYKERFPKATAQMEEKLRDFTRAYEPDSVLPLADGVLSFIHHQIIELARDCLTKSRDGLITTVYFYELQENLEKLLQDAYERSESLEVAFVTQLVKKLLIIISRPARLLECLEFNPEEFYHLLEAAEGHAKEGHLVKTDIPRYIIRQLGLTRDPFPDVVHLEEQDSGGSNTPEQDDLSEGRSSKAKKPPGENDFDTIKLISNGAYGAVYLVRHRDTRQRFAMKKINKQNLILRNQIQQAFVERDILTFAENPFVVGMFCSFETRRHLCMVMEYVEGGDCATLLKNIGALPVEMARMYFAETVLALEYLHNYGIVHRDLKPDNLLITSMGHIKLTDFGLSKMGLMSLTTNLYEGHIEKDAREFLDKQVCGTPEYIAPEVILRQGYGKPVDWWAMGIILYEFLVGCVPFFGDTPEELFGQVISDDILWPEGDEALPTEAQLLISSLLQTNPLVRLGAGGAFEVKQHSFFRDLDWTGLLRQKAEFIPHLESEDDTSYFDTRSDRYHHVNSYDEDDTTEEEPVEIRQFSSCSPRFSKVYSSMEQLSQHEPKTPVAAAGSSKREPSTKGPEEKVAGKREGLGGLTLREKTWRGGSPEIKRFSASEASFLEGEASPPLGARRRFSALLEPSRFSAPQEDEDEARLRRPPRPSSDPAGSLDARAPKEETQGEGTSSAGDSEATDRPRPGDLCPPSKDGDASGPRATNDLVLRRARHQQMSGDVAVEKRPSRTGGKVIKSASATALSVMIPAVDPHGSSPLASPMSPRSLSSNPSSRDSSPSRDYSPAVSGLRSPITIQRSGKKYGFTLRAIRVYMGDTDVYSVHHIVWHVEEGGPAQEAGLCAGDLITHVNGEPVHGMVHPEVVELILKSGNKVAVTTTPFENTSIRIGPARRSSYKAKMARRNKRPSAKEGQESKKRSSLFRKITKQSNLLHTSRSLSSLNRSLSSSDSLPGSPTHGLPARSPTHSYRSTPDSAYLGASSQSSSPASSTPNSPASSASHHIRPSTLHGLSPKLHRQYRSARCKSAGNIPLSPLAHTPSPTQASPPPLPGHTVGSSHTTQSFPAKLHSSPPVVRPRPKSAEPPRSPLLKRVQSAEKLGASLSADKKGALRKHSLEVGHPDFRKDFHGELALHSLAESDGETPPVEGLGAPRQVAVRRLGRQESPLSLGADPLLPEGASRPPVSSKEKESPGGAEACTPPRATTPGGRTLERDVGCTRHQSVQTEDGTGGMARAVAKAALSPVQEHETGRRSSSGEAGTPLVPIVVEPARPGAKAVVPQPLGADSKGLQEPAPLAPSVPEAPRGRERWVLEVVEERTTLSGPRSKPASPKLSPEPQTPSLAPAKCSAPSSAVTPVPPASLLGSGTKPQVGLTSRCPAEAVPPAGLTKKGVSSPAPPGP

Cc1cccc(-c2nc(Nc3ccncc3)c3ccccc3n2)n1 [NK215]
KINOMEscan MAST1 [1]: 50 | KINOMEscan MYLK2 [2]: 7 | KINOMEscan TAOK1 [3]: 0 | KINOMEscan AURKA [4]: 0 | KINOMEscan TBK1 [5]: 41
